Active and inactive are the calls of the source. No cut-off for these calls is given here.
Columns and labels:
MGC-803 [1] = test: Cell cycle arrest in human MGC803 cells assessed as accumulation of cells at G2/M phase at 20 uM after 24 hrs by propidium iodide staining-based flow cytometric analysis (reference value: 9.86%); type: functional
MGC-803 [2] = test: Induction of apoptosis in human MGC803 cells assessed as late apoptotic cells at 10 uM after 24 hrs by Annexin V-FITC/propidium iodide staining-based flow cytometric analysis (reference value: 4.17%); type: functional
MGC-803 [3] = test: Inhibition of colony formation in human MGC803 cells assessed as reduction in viable cells incubated for 9 days where culture medium was changed every 3 days by crystal violet staining-based assay; type: functional, cell-based
MGC-803 [4] = test: Induction of apoptosis in human MGC803 cells assessed as necrotic cells at 30 uM after 24 hrs by Annexin V-FITC/propidium iodide staining-based flow cytometric analysis (reference value: 0.556%); type: functional
MGC-803 [5] = test: Cell cycle arrest in human MGC803 cells assessed as accumulation of cells at S phase at 20 uM after 24 hrs by propidium iodide staining-based flow cytometric analysis (reference value: 37.1%); type: functional
MGC-803 [6] = test: Induction of apoptosis in human MGC803 cells assessed as early apoptotic cells at 10 uM after 24 hrs by Annexin V-FITC/propidium iodide staining-based flow cytometric analysis (reference value: 1.04%); type: functional
MGC-803 [7] = test: Cell cycle arrest in human MGC803 cells assessed as accumulation of cells at G2/M phase after 24 hrs by propidium iodide staining-based flow cytometric analysis; type: functional
MGC-803 [8] = test: Induction of apoptosis in human MGC803 cells assessed as necrotic cells at 10 uM after 24 hrs by Annexin V-FITC/propidium iodide staining-based flow cytometric analysis (reference value: 0.556%); type: functional
MGC-803 [9] = test: Induction of apoptosis in human MGC803 cells assessed as necrotic cells at 20 uM after 24 hrs by Annexin V-FITC/propidium iodide staining-based flow cytometric analysis (reference value: 0.556%); type: functional
MGC-803 [10] = test: Cell cycle arrest in human MGC803 cells assessed as accumulation of cells at S phase at 60 uM after 24 hrs by propidium iodide staining-based flow cytometric analysis (reference value: 37.1%); type: functional
MGC-803 [11] = test: Cell cycle arrest in human MGC803 cells assessed as accumulation of cells at G0/G1 phase at 20 uM after 24 hrs by propidium iodide staining-based flow cytometric analysis (reference value: 51.37%); type: functional
MGC-803 [12] = test: Induction of apoptosis in human MGC803 cells assessed as late apoptotic cells at 20 uM after 24 hrs by Annexin V-FITC/propidium iodide staining-based flow cytometric analysis (reference value: 4.17%); type: functional
MCF7 = test: Antiproliferative activity against human MCF7 cells after 48 hrs by MTT assay; type: functional, cell-based; conditions: MCF7, 48 h
HepG2 = test: Antiproliferative activity against human HepG2 cells after 48 hrs by MTT assay; type: functional, cell-based; conditions: HepG2, 48 h
MGC-803 [13] = test: Cell cycle arrest in human MGC803 cells assessed as accumulation of cells at G0/G1 phase at 60 uM after 24 hrs by propidium iodide staining-based flow cytometric analysis (reference value: 51.37%); type: functional
MGC-803 [14] = test: Induction of apoptosis in human MGC803 cells assessed as viable cells at 30 uM after 24 hrs by Annexin V-FITC/propidium iodide staining-based flow cytometric analysis (reference value: 94.2%); type: functional; conditions: MGC-803, 24 h, read-out: Activity
MGC-803 [15] = test: Induction of apoptosis in human MGC803 cells assessed as viable cells at 10 uM after 24 hrs by Annexin V-FITC/propidium iodide staining-based flow cytometric analysis (reference value: 94.2%); type: functional; conditions: MGC-803, 24 h, read-out: Activity
A549 = test: Antiproliferative activity against human A549 cells after 48 hrs by MTT assay; type: functional, cell-based; conditions: A549, 48 h
MGC-803 [16] = test: Effect on PFK expression levels in human MGC803 cells at 10 to 40 uM after 24 hrs by Western blot analysis; type: functional, cell-based
MGC-803 [17] = test: Antimigratory activity against human MGC803 cells after 48 hrs by scratch wound-healing assay; type: functional, cell-based
MGC-803 [18] = test: Induction of apoptosis in human MGC803 cells after 24 hrs by Annexin V-FITC/propidium iodide staining-based flow cytometric analysis; type: functional, cell-based
MGC-803 [19] = test: Cell cycle arrest in human MGC803 cells assessed as accumulation of cells at G2/M phase at 40 uM after 24 hrs by propidium iodide staining-based flow cytometric analysis (reference value: 9.86%); type: functional
MGC-803 [20] = test: Cell cycle arrest in human MGC803 cells assessed as accumulation of cells at G0/G1 phase at 40 uM after 24 hrs by propidium iodide staining-based flow cytometric analysis (reference value: 51.37%); type: functional
MGC-803 [21] = test: Induction of apoptosis in human MGC803 cells assessed as early apoptotic cells at 30 uM after 24 hrs by Annexin V-FITC/propidium iodide staining-based flow cytometric analysis (reference value: 1.04%); type: functional
MGC-803 [22] = test: Induction of apoptosis in human MGC803 cells assessed as early apoptotic cells at 20 uM after 24 hrs by Annexin V-FITC/propidium iodide staining-based flow cytometric analysis (reference value: 1.04%); type: functional
MGC-803 [23] = test: Cell cycle arrest in human MGC803 cells assessed as accumulation of cells at S phase at 40 uM after 24 hrs by propidium iodide staining-based flow cytometric analysis (reference value: 37.1%); type: functional
MGC-803 [24] = test: Down regulation of HK2 expression levels in human MGC803 cells at 10 to 40 uM after 24 hrs by Western blot analysis; type: functional, cell-based
MGC-803 [25] = test: Effect on HIF-1 expression levels in human MGC803 cells at 10 to 40 uM in presence of 100 uM CoCl2 after 24 hrs by Western blot analysis; type: functional, cell-based
HeLa = test: Antiproliferative activity against human HeLa cells after 48 hrs by MTT assay; type: functional, cell-based
MGC-803 [26] = test: Induction of apoptosis in human MGC803 cells assessed as viable cells at 20 uM after 24 hrs by Annexin V-FITC/propidium iodide staining-based flow cytometric analysis (reference value: 94.2%); type: functional; conditions: MGC-803, 24 h, read-out: Activity
MGC-803 [27] = test: Cell cycle arrest in human MGC803 cells assessed as accumulation of cells at G2/M phase at 60 uM after 24 hrs by propidium iodide staining-based flow cytometric analysis (reference value: 9.86%); type: functional
MGC-803 [28] = test: Inhibition of colony formation in human MGC803 cells assessed as reduction in viable cells at 40 uM incubated for 9 days where culture medium was changed every 3 days by crystal violet staining-based assay; type: functional
MGC-803 [29] = test: Induction of apoptosis in human MGC803 cells assessed as late apoptotic cells at 30 uM after 24 hrs by Annexin V-FITC/propidium iodide staining-based flow cytometric analysis (reference value: 4.17%); type: functional
MGC-803 [30] = test: Antiproliferative activity against human MGC803 cells after 48 hrs by MTT assay; type: functional, cell-based; conditions: MGC-803, 48 h

**Q.** For Cc1cccc(C(=O)NCCc2c[nH]c3ccc(Br)cc23)c1O, which Activity (MGC-803 [1]) is on record?
**A.** 27.01%

**Q.** And the Activity (MGC-803 [2])?
**A.** 6.56%

**Q.** And the inhibition (MGC-803 [3])?
**A.** Dose-dependent effect

**Q.** What about the Activity (MGC-803 [4]) of the same compound?
**A.** 0.587%

**Q.** What about the Activity (MGC-803 [5]) of the same compound?
**A.** 21.11%

**Q.** And the Activity (MGC-803 [6])?
**A.** 1.66%

**Q.** What about the Activity (MGC-803 [7]) of the same compound?
**A.** Dose-dependent effect

**Q.** What about the Activity (MGC-803 [8]) of the same compound?
**A.** 0.25%

**Q.** And the Activity (MGC-803 [9])?
**A.** 1.37%

**Q.** And the Activity (MGC-803 [10])?
**A.** 7.56%

**Q.** What about the Activity (MGC-803 [11]) of the same compound?
**A.** 43%

**Q.** What about the Activity (MGC-803 [12]) of the same compound?
**A.** 9.67%

**Q.** What about the IC50 (MCF7) of the same compound?
**A.** 63 µM

**Q.** What about the IC50 (HepG2) of the same compound?
**A.** 45 µM

**Q.** What about the Activity (MGC-803 [13]) of the same compound?
**A.** 52.98%

**Q.** What about the viability at 30 µM (MGC-803 [14]) of the same compound?
**A.** 41.3%

**Q.** What about the viability at 10 µM (MGC-803 [15]) of the same compound?
**A.** 91.5%

**Q.** And the IC50 (A549)?
**A.** 36 µM

**Q.** And the Activity (MGC-803 [16])?
**A.** inactive

**Q.** And the Activity (MGC-803 [17])?
**A.** Dose-dependent effect

**Q.** And the Activity (MGC-803 [18])?
**A.** Dose-dependent effect

**Q.** And the Activity (MGC-803 [19])?
**A.** 34.65%

**Q.** What about the Activity (MGC-803 [20]) of the same compound?
**A.** 49.99%

**Q.** And the Activity (MGC-803 [21])?
**A.** 42.7%

**Q.** And the Activity (MGC-803 [22])?
**A.** 5.97%

**Q.** And the Activity (MGC-803 [23])?
**A.** 15.58%

**Q.** And the Activity (MGC-803 [24])?
**A.** Active

**Q.** And the Activity (MGC-803 [25])?
**A.** inactive

**Q.** And the IC50 (HeLa)?
**A.** 52 µM

**Q.** And the viability at 20 µM (MGC-803 [26])?
**A.** 83%

**Q.** And the Activity (MGC-803 [27])?
**A.** 40.78%

**Q.** What about the inhibition at 40 µM (MGC-803 [28]) of the same compound?
**A.** 100%

**Q.** What about the Activity (MGC-803 [29]) of the same compound?
**A.** 15.4%

**Q.** And the IC50 (MGC-803 [30])?
**A.** 29 µM

Reference: ChEMBL document CHEMBL4368888, “Design, synthesis and biological evaluation of tryptamine salicylic acid derivatives as potential antitumor agents” (Medchemcomm, 2019)
